Molecular target: T1, Ca^2+-activated Cl^– channel (CaCC) (Homo sapiens, UniProt Q5XXA6)
T1 construct: endogenous in cells; host or cells: CFBE41o- cells stably expressing YFP (YFP-CFBE cells)
T1 sequence (Q5XXA6 1-986): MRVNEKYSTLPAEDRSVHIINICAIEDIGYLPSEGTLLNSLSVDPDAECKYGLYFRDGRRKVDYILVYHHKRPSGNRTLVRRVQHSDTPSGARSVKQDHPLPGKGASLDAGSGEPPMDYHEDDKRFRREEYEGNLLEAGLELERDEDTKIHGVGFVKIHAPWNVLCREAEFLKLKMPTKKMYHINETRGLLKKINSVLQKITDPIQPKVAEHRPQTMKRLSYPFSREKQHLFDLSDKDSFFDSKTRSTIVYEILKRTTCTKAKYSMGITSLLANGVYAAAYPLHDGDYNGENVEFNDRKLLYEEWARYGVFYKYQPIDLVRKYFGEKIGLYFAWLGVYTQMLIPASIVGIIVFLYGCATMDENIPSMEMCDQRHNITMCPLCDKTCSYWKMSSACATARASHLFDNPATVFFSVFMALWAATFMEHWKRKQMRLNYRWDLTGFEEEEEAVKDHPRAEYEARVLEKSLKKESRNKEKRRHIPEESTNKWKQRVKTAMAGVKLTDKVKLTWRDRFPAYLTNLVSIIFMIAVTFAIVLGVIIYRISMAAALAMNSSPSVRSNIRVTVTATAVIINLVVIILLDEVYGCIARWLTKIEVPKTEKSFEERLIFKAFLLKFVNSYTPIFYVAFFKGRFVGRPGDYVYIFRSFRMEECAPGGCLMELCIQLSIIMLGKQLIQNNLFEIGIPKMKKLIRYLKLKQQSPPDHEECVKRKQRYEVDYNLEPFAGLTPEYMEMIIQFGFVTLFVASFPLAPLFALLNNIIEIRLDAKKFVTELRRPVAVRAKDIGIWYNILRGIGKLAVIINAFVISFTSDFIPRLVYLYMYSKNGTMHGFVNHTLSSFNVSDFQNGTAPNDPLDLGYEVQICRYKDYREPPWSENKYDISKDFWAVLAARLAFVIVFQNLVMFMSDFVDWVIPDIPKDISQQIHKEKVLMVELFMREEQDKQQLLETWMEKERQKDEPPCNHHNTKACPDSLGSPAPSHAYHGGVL
Assay: CaCC-mediated anion transport in YFP-CFBE cells
Format: cell-based
Conditions: UTP 1 mM; CaCCinh-A01 10 μM
Experimental: (for chemical structure, see ESI Fig. S15 ^†).
the PBS bathing cells 10 minutes prior to PBS iodide addition, whereas UTP was added to cells with the PBS iodide solution. Fluorescence was measured for 14 seconds; 2 seconds before and 12 seconds after injection of 110 l PBS iodide solution (137 mM Cl- replaced by I-) into each well (to obtain a final concentration of I- of 100 mM).
We expressed cell fluorescence values (F) relative to the fluorescence value immediately before I- injection (F0), excluding the initial decrease, which likely represents the quenching of extracellular YFP released from cells and signal reduction accompanying the increase in solution volume bathing cells. To quantify anion transport by test anionophores, we determined the initial slope of the fluorescence decay following I - addition by fitting first order exponential functions to the last 12 seconds of each fluorescence recording. […]
fluorescence microscopy as described previously.10 In brief, YFP-FRT cells were washed 3x with PBS before transfer to a perfusion chamber mounted on the stage of a Leica DM IRB microscope. […] Any anionophore not incorporated into YFP-FRT cell membranes was removed from the chamber by perfusion with PBS when fluorescence measurements commenced. […]
Fluorescence quenching by the anionophore vehicle DMSO was subtracted from each test measurement. […]

effect on CaCC activity: activated little CaCC activity
SMILES: O=c1ccn([C@@H]2O[C@H](COP(=O)(O)OP(=O)(O)OP(=O)(O)O)[C@@H](O)[C@H]2O)c(=O)[nH]1 [UTP]
